Results published in PubChem BioAssay AID330 (DTP/NCI, 2004).
“And” between values parts separate entries of the source, which are not always exact repeats. Identical values can stand only once. Inconclusive results and toxic doses are left out. Peptide text beside a SMILES is read from it. * marks the point of attachment. βNA = c1ccc2cc(N*)ccc2c1

System: P388 leukemia ip, CD2F1 mice, survival T/C
Test: NCI In Vivo Anticancer Drug Screen. Data for tumor model P388 Leukemia (intraperitoneal) in CD2F1 (CDF1) mice
Settings: endpoint: median survival time, higher = longer survival
Outline: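 Mice carrying the transplanted tumor received test compound or vehicle. Survival was recorded in each group, and the value is the treated-group measurement divided by that of the vehicle-treated control group.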

[1] = dose: 25.0 mg/kg/injection, schedule: Q01DX009 (ip), vehicle: saline with Tween-80
[2] = dose: 12.5 mg/kg/injection, schedule: Q01DX009 (ip), vehicle: saline with Tween-80
[3] = dose: 50.0 mg/kg/injection, schedule: Q01DX009 (ip), vehicle: Klucel (hydroxypropylcellulose) (HPC)
[4] = dose: 100.0 mg/kg/injection, schedule: Q01DX009 (ip), vehicle: Klucel (hydroxypropylcellulose) (HPC)
[5] = dose: 200.0 mg/kg/injection, schedule: Q01DX009 (ip), vehicle: Klucel (hydroxypropylcellulose) (HPC)
[6] = dose: 50.0 mg/kg/injection, schedule: Q01DX005 (ip), vehicle: saline
[7] = dose: 50.0 mg/kg/injection, schedule: Q01DX005 (ip), vehicle: saline with Tween-80
[8] = dose: 100.0 mg/kg/injection, schedule: Q01DX005 (ip), vehicle: saline with Tween-80
[9] = dose: 100.0 mg/kg/injection, schedule: Q01DX009 (ip), vehicle: saline
[10] = dose: 200.0 mg/kg/injection, schedule: Q01DX009 (ip), vehicle: saline
[11] = dose: 50.0 mg/kg/injection, schedule: Q01DX009 (ip), vehicle: saline

In the case of C1CC[N-]CC1.C1CC[N-]CC1.C1CC[N-]CC1.[Cl][Rh]([Cl])[Cl], the T/C (dose: 1.0 mg/kg/injection, schedule: Q03HX024 (ip), vehicle: saline) is reported as 100 % of control and 96 % of control, the T/C (dose: 2.0 mg/kg/injection, schedule: Q03HX016 (ip), vehicle: saline) is reported as 97 % of control and the T/C (dose: 2.0 mg/kg/injection, schedule: Q03HX024 (ip), vehicle: saline) is reported as 96 % of control and 98 % of control. The T/C (dose: 4.0 mg/kg/injection, schedule: Q01DX009 (ip), vehicle: saline) was 98 % of control, the T/C (dose: 4.0 mg/kg/injection, schedule: Q03HX016 (ip), vehicle: saline) was 96 % of control and the T/C (dose: 4.0 mg/kg/injection, schedule: Q03HX024 (ip), vehicle: saline) was 96 % of control. The T/C (dose: 8.0 mg/kg/injection, schedule: Q03HX016 (ip), vehicle: saline) was 110 % of control and 96 % of control, the T/C (dose: 8.0 mg/kg/injection, schedule: Q03HX024 (ip), vehicle: saline) was 97 % of control and the T/C (dose: 8.0 mg/kg/injection, schedule: Q04DX003 (ip), vehicle: saline) was 100 % of control. For the same compound, the T/C (dose: 16.0 mg/kg/injection, schedule: Q01DX001 (ip), vehicle: saline) was 110 % of control, the T/C (dose: 16.0 mg/kg/injection, schedule: Q03HX008 (ip), vehicle: saline) was 119 % of control and the T/C (dose: 16.0 mg/kg/injection, schedule: Q03HX024 (ip), vehicle: saline) was 97 % of control. The T/C [1] was 154 % of control, the T/C (dose: 32.0 mg/kg/injection, schedule: Q01DX009 (ip), vehicle: saline) was 118 % of control and the T/C (dose: 32.0 mg/kg/injection, schedule: Q03HX008 (ip), vehicle: saline) was 110 % of control. The T/C (dose: 32.0 mg/kg/injection, schedule: Q03HX016 (ip), vehicle: saline) was 96 % of control, the T/C (dose: 32.0 mg/kg/injection, schedule: Q03HX024 (ip), vehicle: saline) was 96 % of control and 97 % of control and the T/C (dose: 64.0 mg/kg/injection, schedule: Q01DX001 (ip), vehicle: saline) was 110 % of control. The T/C (dose: 64.0 mg/kg/injection, schedule: Q01DX009 (ip), vehicle: saline) was 118 % of control and the T/C (dose: 64.0 mg/kg/injection, schedule: Q08DX002 (ip), vehicle: saline) was 110 % of control.
In the case of N=C(N)c1ccc(Oc2ccc(Oc3ccc(C(=N)N)cc3)cc2)cc1, the T/C (dose: 3.13 mg/kg/injection, schedule: Q01DX009 (ip), vehicle: saline with Tween-80) is reported as 109 % of control, the T/C (dose: 3.13 mg/kg/injection, schedule: Q01DX009 (ip), vehicle: saline) is reported as 102 % of control and the T/C (dose: 6.25 mg/kg/injection, schedule: Q01DX009 (ip), vehicle: saline with Tween-80) is reported as 109 % of control. The T/C (dose: 6.25 mg/kg/injection, schedule: Q01DX009 (ip), vehicle: saline) was 113 % of control and the T/C [2] was 124 % of control.
In the case of CCCCCCCCN1CCS(=O)(=O)CC1, the T/C [3] is reported as 89 % of control, the T/C [4] is reported as 94 % of control and the T/C [5] is reported as 93 % of control.
For c1cc2cc(C3=NCCN3)[nH]c2cc1C1=NCCN1, the T/C (dose: 12.5 mg/kg/injection, schedule: Q01DX005 (ip), vehicle: saline) was 98 % of control, the T/C (dose: 25.0 mg/kg/injection, schedule: Q01DX005 (ip), vehicle: saline) was 103 % of control and the T/C [6] was 99 % of control.
In the case of N#CCCn1nc(SCc2ccccc2)c(=O)[nH]c1=O, the T/C [7] is reported as 95 % of control, the T/C [8] is reported as 94 % of control and the T/C (dose: 200.0 mg/kg/injection, schedule: Q01DX005 (ip), vehicle: saline with Tween-80) is reported as 92 % of control.
With NC1C[S][Sn]2([O]C1=O)[O]C(=O)C(N)C[S]2 (stereo unspecified) the T/C (dose: 50.0 mg/kg/injection, schedule: Q01DX005 (ip), vehicle: Klucel (hydroxypropylcellulose) (HPC)) was 99 % of control, the T/C (dose: 100.0 mg/kg/injection, schedule: Q01DX005 (ip), vehicle: Klucel (hydroxypropylcellulose) (HPC)) was 100 % of control and the T/C (dose: 200.0 mg/kg/injection, schedule: Q01DX005 (ip), vehicle: Klucel (hydroxypropylcellulose) (HPC)) was 100 % of control.
In the case of Cc1cccc(O)c1O, the T/C [9] is reported as 102 % of control and the T/C [10] is reported as 121 % of control and 122 % of control.
In the case of CCOC(=O)C(C(=O)OCC)(C(=O)C(F)(F)C(F)(F)C(F)(F)C(F)(F)C(=O)C(C(=O)OCC)(C(=O)OCC)c1ccccc1)c1ccccc1, the T/C (dose: 60.0 mg/kg/injection, schedule: Q01DX005 (ip), vehicle: saline with Tween-80) is reported as 93 % of control, the T/C (dose: 120.0 mg/kg/injection, schedule: Q01DX005 (ip), vehicle: saline with Tween-80) is reported as 98 % of control and the T/C (dose: 240.0 mg/kg/injection, schedule: Q01DX005 (ip), vehicle: saline with Tween-80) is reported as 89 % of control.
In the case of CC(=O)Nc1c(I)c(C(=O)NC2C(O)OC(CO)C(O)C2O)c(I)c(N(C)C(C)=O)c1I (stereo unspecified), the T/C (dose: 60.0 mg/kg/injection, schedule: Q01DX005 (ip), vehicle: saline) is reported as 100 % of control, the T/C (dose: 120.0 mg/kg/injection, schedule: Q01DX005 (ip), vehicle: saline) is reported as 100 % of control and the T/C (dose: 240.0 mg/kg/injection, schedule: Q01DX005 (ip), vehicle: saline) is reported as 107 % of control.
For Cc1ccccc1C(=O)Nc1ccccc1-c1ccccc1, the T/C [2] was 94 % of control, the T/C [1] was 100 % of control and the T/C (dose: 50.0 mg/kg/injection, schedule: Q01DX009 (ip), vehicle: saline with Tween-80) was 106 % of control. For the same compound, the T/C [11] was 95 % of control and the T/C [10] was 93 % of control.
In the case of CN(C)CCCOC1(Cc2ccc(F)cc2)CCCCCC1, the T/C [7] is reported as 102 % of control and the T/C [8] is reported as 102 % of control.
N=c1ncn(C2OC(CO)C(O)C2O)c2nc[nH]c12 (stereo unspecified) was tested, and the T/C (dose: 6.25 mg/kg/injection, schedule: Q01DX009 (ip), vehicle: Klucel (hydroxypropylcellulose) (HPC)) was 113 % of control and the T/C (dose: 12.5 mg/kg/injection, schedule: Q01DX009 (ip), vehicle: Klucel (hydroxypropylcellulose) (HPC)) was 108 % of control.
In the case of O=C(NC(COC1OC(CO)C(O)C(O)C1O)C(O)c1ccccc1)c1ccccc1 (stereo unspecified), the T/C [3] is reported as 107 % of control, the T/C [11] is reported as 90 % of control and the T/C [4] is reported as 108 % of control. For the same compound, the T/C [9] was 102 % of control, the T/C [5] was 113 % of control and the T/C [10] was 108 % of control.
For N#CSCCSC#N, the T/C (dose: 6.25 mg/kg/injection, schedule: Q04DX002 (ip), vehicle: Klucel (hydroxypropylcellulose) (HPC)) was 100 % of control and the T/C (dose: 12.5 mg/kg/injection, schedule: Q04DX002 (ip), vehicle: Klucel (hydroxypropylcellulose) (HPC)) was 97 % of control.
With O=C(OCc1ccccc1)C(=O)c1c(O)n(-c2ccccc2)c2ccccc12 the T/C (dose: 100.0 mg/kg/injection, schedule: Q04DX002 (ip), vehicle: saline + alcohol) was 99 % of control, the T/C (dose: 200.0 mg/kg/injection, schedule: Q04DX002 (ip), vehicle: saline + alcohol) was 100 % of control and the T/C (dose: 400.0 mg/kg/injection, schedule: Q04DX002 (ip), vehicle: saline + alcohol) was 96 % of control.
Cc1ccc(/C(=N/NS(=O)(=O)c2ccc(C)cc2)C(C)c2ccccc2)cc1 (stereo unspecified) was tested, and the T/C (dose: 100.0 mg/kg/injection, schedule: Q01DX001 (ip), vehicle: Klucel (hydroxypropylcellulose) (HPC)) was 99 % of control, the T/C (dose: 200.0 mg/kg/injection, schedule: Q01DX001 (ip), vehicle: Klucel (hydroxypropylcellulose) (HPC)) was 100 % of control and the T/C (dose: 400.0 mg/kg/injection, schedule: Q01DX001 (ip), vehicle: Klucel (hydroxypropylcellulose) (HPC)) was 99 % of control.
In the case of COc1ccc(C2OC(N)=C(O)C2=O)cc1OC (stereo unspecified), the T/C (dose: 60.0 mg/kg/injection, schedule: Q01DX005 (ip), vehicle: Klucel (hydroxypropylcellulose) (HPC)) is reported as 100 % of control, the T/C (dose: 120.0 mg/kg/injection, schedule: Q01DX005 (ip), vehicle: Klucel (hydroxypropylcellulose) (HPC)) is reported as 91 % of control and the T/C (dose: 240.0 mg/kg/injection, schedule: Q01DX005 (ip), vehicle: Klucel (hydroxypropylcellulose) (HPC)) is reported as 95 % of control.
O=C(CC(=O)C(F)(F)F)c1cccs1.O=C(CC(=O)C(F)(F)F)c1cccs1.O=C(CC(=O)C(F)(F)F)c1cccs1.[Eu] was tested, and the T/C [11] was 113 % of control, the T/C [9] was 106 % of control and the T/C [10] was 102 % of control.
COC(=O)c1ccc(Cl)cc1O was tested, and the T/C (dose: 12.5 mg/kg/injection, schedule: Q01DX009 (ip), vehicle: distilled water + Tween-80) was 92 % of control, the T/C (dose: 25.0 mg/kg/injection, schedule: Q01DX009 (ip), vehicle: distilled water + Tween-80) was 100 % of control and the T/C (dose: 50.0 mg/kg/injection, schedule: Q01DX009 (ip), vehicle: distilled water + Tween-80) was 102 % of control. The T/C (dose: 100.0 mg/kg/injection, schedule: Q01DX009 (ip), vehicle: distilled water + Tween-80) was 102 % of control and the T/C (dose: 200.0 mg/kg/injection, schedule: Q01DX009 (ip), vehicle: distilled water + Tween-80) was 92 % of control.
With CC(N)C(=O)NC(Cc1ccccc1)C(=O)N1CCCC1C(=O)Nc1ccc2ccccc2c1 (stereo not drawn) (H-Ala-Phe-Pro-βNA; configuration not given here) the T/C [6] was 106 % of control and the T/C (dose: 100.0 mg/kg/injection, schedule: Q01DX005 (ip), vehicle: saline) was 92 % of control.
